Patent US20200237700A1, “METHODS OF REDUCING OR PREVENTING OXIDATION OF SMALL DENSE LDL OR MEMBRANE POLYUNSATURATED FATTY ACIDS” (Amarin Pharmaceuticals Ireland Limited, priority 2015, published 2020)

Experiments:
[1] = system: human sdLDL; test: Copper-induced sdLDL oxidation, TBARS (Example 7); type: biochemical; settings: for effect on sdLDL oxidation as compared to vehicle-treated controls: 10 μM, 1 hour
Protocol: (§1) An experiment to study the antioxidant effect of EPA in LDL and small dense […] performed. […] Fenofibrate, gemfibrozil, and niacin were purchased from Sigma-Aldrich. […] Vitamin E was also incubated with sample aliquots as a positive control.

[2] = Glucose-induced membrane lipid peroxidation (LOOH) in multilamellar vesicles, CHOD-iodide assay (Example 4); type: biochemical
Protocol: Vitamin E (α-tocopherol) was also purchased from Sigma-Aldrich and prepared in ethanol at 1.0 mM (ε=3.06×10^4 M^−1 cm^−1 at 294 nm) just prior to experimental use. […] All test compounds were further diluted in ethanol or aqueous buffer as needed. Glucose was prepared in saline buffer (0.5 mM HEPES, 154 mM NaCl, pH 7.3) at 11.0 mM (200 mg/dL). CHOD-iodide color reagent (stock) was prepared, with slight modification, as described by from El-Saadani et al. (J. […] Samples were shell-dried under nitrogen gas and placed under vacuum for 1 h to remove residual solvent. […] Lipid suspensions were then vortexed for 3 min at ambient temperature to form MLVs. All MLV samples were subjected to time-dependent autoxidation by incubating at 37° C. in an uncovered, shaking water bath. This method allows lipid peroxidation to occur gradually without requiring the use of exogenous initiators. Small aliquots (5-100 μL) of each sample were removed, immediately following MLV preparation (0 hour) and after exposing samples to oxidative conditions for 72 or 96 hour, and combined with 1.0 mL of activated CHOD-iodide color reagent. Aliquot volume was reduced with each successive time point to ensure that spectrophotometric readings were within the optimal adsorption range. Test samples were covered and incubated in darkness at room temperature for at least 4 hr. Sample absorbances were then measured against a CHOD blank at 365 nm using a Beckman DU-640 spectrophotometer. The CHOD colorimetric assay is based on the oxidation of iodide (I^−) by lipid hydroperoxide (LOOH) to form triiodide (I3^−), the quantity of which is directly proportional to the amount of LOOH present in the lipid sample. The molar absorptivity (E) of I3^− is 2.46×10^4 M^−1 cm^−1 at 365 nm. […] The concentration of glucose selected was consistent with previous experimental studies of hyperglycemia under controlled laboratory conditions or observed in well-defined animal models of Type II diabetes following a glucose challenge. […] Values in FIG. 1 are mean±S.D. (N=6). EPA inhibited the peroxidative effects of glucose by 88% and 86% at 72 and 96 hours, respectively, which was highly significant (p<0.001) as compared to glucose treatment alone. […] Overall ANOVA-0 hour data: p=0.6655, F=0.4185; 72 hour data: p<0.0001, F=428.72; 96 hour data: p<0.0001, F=322.01.

[3] = system: human LDL (unfractionated); test: Copper-induced unfractionated LDL oxidation, TBARS 1 hr (Example 7); type: biochemical; settings: 10 μM
Protocol: as §1

[4] = system: sdLDL isolated from human subjects under hyperglycemia; test: Glucose-induced sdLDL oxidation, TBARS/MDA (Example 10); type: biochemical; settings: glucose 200 mg/dL; for glucose-induced sdLDL oxidation: 10.0 μM
Protocol: Vitamin E (α-tocopherol) purchased from Sigma-Aldrich was prepared in ethanol at 1.0 mM (c=3.06×10^4 M^−1 cm^−1 at 294 nm) prior to experimental use. Test compounds were further diluted in ethanol or aqueous buffer as needed. Phosphate Buffered Saline (PBS) purchased from Sigma-Aldrich was prepared in double distilled water at 10 mM (138 mM NaCl, 2.7 mM KCl, pH 7.4). […] Lipid oxidation was measured by the colorimetric detection of malondialdehyde (MDA), a marker of oxidative stress. Data were presented as mean±SD for (n) separate samples or experiments. Differences between groups were analyzed using the unpaired, two-tailed Student's t-test (for comparisons between only two groups) or ANOVA followed by Student-Newman-Keuls multiple comparisons post hoc analysis (for comparisons between three or more groups).

[5] = Small angle x-ray diffraction of cholesterol-enriched POPC model membranes, cholesterol domain peak intensity (Example 9); type: physicochemical; settings: drug-to-phospholipid mole ratio 1:30
Protocol: The fatty acid stock solutions were stored at −20° C. until use. […] Samples were shell-dried under nitrogen gas and placed under vacuum for 3 hours to remove residual solvent at room temperature. After desiccation, each sample was resuspended in saline buffer (0.5 mM HEPES, 154 mM NaCl, pH 7.3) to yield a final phospholipid concentration of 2.5 mg/mL. Lipid suspensions were then vortexed for 3 minutes at ambient temperature to form MLVs. Membrane lipid vesicles were oriented for x-ray diffraction analysis as described by others (e.g., Herbette et al., Biophys. […] Briefly, a 100 μL aliquot of each MLV preparation (containing 250 μg MLV) was transferred to a Lucite® sedimentation cell fitted with an aluminum foil substrate designed to collect MLVs into a single membrane pellet upon centrifugation. […] After centrifugal orientation, sample supernatants were aspirated and aluminum foil substrates, each supporting a single membrane pellet, were removed from the sedimentation cells. Sample pellets were dried for 5-10 minutes at ambient conditions, mounted onto curved glass supports, and placed in hermetically-sealed, brass or glass containers (for immediate analysis or temporary storage, respectively). All x-ray diffraction experiments were conducted at 20° C., 74% relative humidity. The latter was established by exposing membrane samples to saturated solutions of L-(+)-tartaric acid (K2C4H4O6.½H2O) for at least 1 hour prior to experimental analysis. Oriented membrane samples were aligned at grazing incidence with respect to a collimated, mono-chromatic CuKα x-ray beam (Kα1 and Kα2 unresolved; λ=1.54 Å) produced by a Rigaku Rotaflex RU-200, high-brilliance microfocus generator (Rigaku-MSC, The Woodlands, Tex.) as previously described (Mason et al., Biophys. J., vol. 55(4), pages 769-778 (1989)). The samples were initially subjected to x-ray diffraction analysis at least 12 hours after formation of the membrane pellets and retested for up to several days. […] Collimation of the x-ray beam was achieved using a single Franks mirror. Diffraction data were collected on a one-dimensional, position-sensitive electron detector (Hecus X-ray Systems, Graz, Austria) at a sample-to-detector distance of 150 mm from the sample site. […] Routines written in Origin 8.6 (OriginLab Corporation, Northampton, Mass.) were used to determine total peak area (associated with all diffraction peaks in a given pattern) against which the second-order cholesterol domain peak was normalized. […] Differences between groups were analyzed using the two-tailed, Student's t-test (for comparisons between only two groups) or ANOVA followed by Dunnett or Student-Newman-Keuls multiple comparisons post-hoc analysis (for comparisons between three or more groups). […]

[6] = Small angle x-ray diffraction of glucose-treated model membranes, cholesterol domain peak intensity (Example 4); type: physicochemical; settings: any experimental time point; 1:30 drug-to-phospholipid; glucose 200 mg/dL
Protocol: After centrifugal orientation, sample supernatants were aspirated and aluminum foil substrates, each supporting a single membrane pellet, were removed from the sedimentation cells. […] All x-ray diffraction experiments were conducted at 20° C., 74% relative humidity.
Oriented membrane samples were aligned at grazing incidence with respect to a collimated, mono-chromatic CuKα x-ray beam (Kα1 and Kα2 unresolved; λ=1.54 Å) produced by a Rigaku Rotaflex RU-200, high-brilliance microfocus generator (Rigaku-MSC, The Woodlands, Tex.) as previously described (Mason et al., Biophys. J., vol. 55(4), pages 769-778 (1989)).
Routines written in Origin 8.6 (OriginLab Corporation, Northampton, Mass.) were used to determine total peak area (associated with all diffraction peaks in a given pattern) against which the second-order cholesterol domain peak was normalized.

[7] = system: human sdLDL; test: Copper-induced sdLDL oxidation, TBARS after 2 hr (Example 6); type: biochemical
Protocol: An experiment to study the antioxidant effect of EPA in small dense […] performed. […] Vitamin E (α-tocopherol) was purchased from Sigma-Aldrich and prepared in ethanol at 1.0 mM (ε=3.06×10^4 M^-1 cm^-1 at 294 nm) just prior to experimental use. All test compounds were further diluted in ethanol or aqueous buffer as needed. Venous blood was collected from healthy volunteers into vacutainer tubes containing sodium EDTA. Plasma was separated by centrifugation at 3000 g for 25 min at 4° C. and adjusted to a density of 1.020 g/mL with KBr. Triglyceride-rich lipoproteins (TGRL) and LDL fractions were then isolated by sequential centrifugation at 70,000 rpm at 4° C. in a Beckman LE-80 ultracentrifuge using a Beckman 50.4Ti rotor (Beckman Coulter, Inc., Fullerton, Calif.). The TGRL fraction (with a relative density of <1.020) was aspirated from the top of the centrifugate and discarded, leaving an LDL-enriched […] relative density of 1.020 to 1.063). […] The sdLDL subfraction was retained for additional experimentation. Plasma and lipoprotein fractions were maintained at 4° C. and protected from excessive exposure to light. Prior to oxidation experiments, EDTA was removed from the lipoprotein fraction using PD-10 desalting columns (GE Healthcare, Piscataway N.J.). After equilibration of the column with phosphate buffered saline (PBS), 2.5 mL of the lipoprotein fraction was loaded on the column and the flow-through discarded. The lipoprotein was then eluted with 3 mL of PBS. The LDL fractions were further diluted with PBS to obtain a 100 μg/mL apoB100 concentration. […] Data are presented as mean±S.D. for (N) separate samples or treatment groups. Differences between groups were analyzed using the two-tailed, Student's t-test (for comparisons between only two groups) or ANOVA followed by Dunnett or Student-Newman-Keuls multiple comparisons post-hoc analysis (for comparisons between three or more groups).

[8] = system: unfractionated LDL isolated from human plasma; test: Copper-induced oxidation of unfractionated LDL, TBARS (Example 6); type: biochemical; settings: 1.0 μM to 10.0 μM; data not shown
Protocol: All test compounds were further diluted in ethanol or aqueous buffer as needed. Venous blood was collected from healthy volunteers into vacutainer tubes containing sodium EDTA. […] Plasma and lipoprotein fractions were maintained at 4° C. and protected from excessive exposure to light. Prior to oxidation experiments, EDTA was removed from the lipoprotein fraction using PD-10 desalting columns (GE Healthcare, Piscataway N.J.). After equilibration of the column with phosphate buffered saline (PBS), 2.5 mL of the lipoprotein fraction was loaded on the column and the flow-through discarded. The lipoprotein was then eluted with 3 mL of PBS. The LDL fractions were further diluted with PBS to obtain a 100 μg/mL apoB100 concentration. […] Differences between groups were analyzed using the two-tailed, Student's t-test (for comparisons between only two groups) or ANOVA followed by Dunnett or Student-Newman-Keuls multiple comparisons post-hoc analysis (for comparisons between three or more groups).

[9] = system: sdLDL from plasma of healthy volunteers; test: Time-dependent sdLDL oxidation, MDA formation over 4 hours (Example 13); type: biochemical, human; settings: entire experimental time course (4 hours)
Protocol: sdLDL was isolated from the plasma of healthy volunteers by iodixanol density gradient centrifugation and adjusted to a final apolipoprotein concentration of 2 mg/mL. Sample aliquots (100 μg apolipoprotein) were incubated with EPA, DHA, or EPA+DHA (each at 10 μM) for 30 minutes at 37° C. and then treated with 10 μM CuSO4 to initiate lipid oxidation. sdLDL oxidation was measured spectrophotometrically as a function of malondialdehyde (MDA) formation at various intervals over 4 hours. Vitamin E was also tested as a positive control. Experiments were conducted in triplicate and reported as mean±SD.

CC(C)c1c(C(=O)Nc2ccccc2O)c(-c2ccccc2)c(-c2ccc(F)cc2)n1CC[C@@H](O)C[C@@H](O)CC(=O)O [ATM, Atorvastatin ortho- (o-) hydroxy (active) metabolite]
inhibition of sdLDL oxidation vs vehicle ([1]; ATM 0.5 μM, alone or in combination with EPA 1.0 μM, 1 hr): 5±5% | inhibition of sdLDL oxidation vs vehicle ([1]; each agent at 1.0 μM, 1 hr): 18±5% | antioxidant effects of separate treatments (LOOH formation) ([2]; each at 1.0 μM, glucose 200 mg/dL, 96 hours): potent antioxidant effects

CC(C)c1c(C(=O)Nc2ccccc2)c(-c2ccccc2)c(-c2ccc(F)cc2)n1CC[C@@H](O)C[C@@H](O)CC(=O)O [atorvastatin]
effect on unfractionated LDL oxidation as compared to vehicle-treated controls [3]: did not have any significant antioxidant activity | effect on sdLDL oxidation as compared to vehicle-treated controls [1]: did not have any significant antioxidant activity | inhibited TBARS formation / sdLDL oxidation vs vehicle ([1]; each agent at 10 μM, 1 hr): 0.1±7%

Cc1ccc(C)c(OCCCC(C)(C)C(=O)O)c1 [gemfibrozil]
glucose-induced sdLDL oxidation [4]: did not inhibit glucose-induced sdLDL oxidation | effect on unfractionated LDL oxidation as compared to vehicle-treated controls [3]: no significant effect | effect on sdLDL oxidation as compared to vehicle-treated controls [1]: no significant effect | effect on cholesterol domains / domain size [5]: no significant changes in cholesterol domain size

Cc1c(C)c2c(c(C)c1O)CC[C@@](C)(CCC[C@H](C)CCC[C@H](C)CCCC(C)C)O2 [vitamin E, α-tocopherol]
glucose-induced sdLDL oxidation [4]: failed to inhibit sdLDL oxidation | increased sdLDL oxidation as compared to glucose-treated controls [4]: 63% | effect on cholesterol domain formation as compared to control [6]: no significant effect | effect on unfractionated LDL oxidation as compared to vehicle-treated controls [3]: no significant effect | reduced TBARS levels compared to vehicle-treated controls ([7]; 10.0 μM, 10 μM CuSO4): 26% | sdLDL oxidation ([7]; concentrations below the highest (10.0 μM)): did not inhibit sdLDL oxidation | LDL oxidation [8]: did not inhibit LDL oxidation at any concentration | effect on sdLDL oxidation as compared to vehicle-treated controls [1]: no significant effect | effect on LOOH formation / lipid peroxidation ([2]; 72- and 96-hour time points, 1:30 drug-to-phospholipid mole ratio, glucose): no significant effect | antioxidant effect on sdLDL oxidation [9]: no significant antioxidant effect
